Earlier results in patent US20200046643A1, “EXTENDED RELEASE FORMULATIONS OF CANNABINOIDS” (Glatt GmbH, priority 2018, published 2020).

Tests used:
[1] = after oral administration

Structure (SMILES) | solubility in organic solvents (organic solvents) | solubility in water | duration of action [1] [h] | duration of appetite-increasing action [1] | duration of psychoactive action [1] [h]
C=C(C)[C@@H]1CCC(C)=C[C@H]1c1c(O)cc(CCCCC)cc1O [CBD, cannabidiol] | soluble in organic solvents | insoluble in water | – | – | –
CCCCCc1cc(O)c2c(c1)OC(C)(C)[C@@H]1CCC(C)=C[C@@H]21 [THC, Δ9-tetrahydrocannabinol] | – | – | 2 to 4 | up to 24 hours | 4 to 6
CCCCCc1cc(O)c2c(c1)OC(C)(C)[C@@H]1CCC(C)=C[C@@H]21 [dronabinol] | – | insoluble in water | – | – | –
